The target in this test is T1, BRD4(1) (Homo sapiens, UniProt O60885).
T1 construct: first bromodomain
Description: biochemical. Also noted: differential scanning fluorimetry, SYPRO Orange, shift of melting temperature of 2 uM bromodomain. The following applies: read-out: BRD4(1) ΔTm (°C).

`Cc1cc(=O)n(C)c2cc(N3C(=O)CC[C@H](NC(=O)OC(C)(C)C)[C@H]3C)ccc12` (relative stereo) [compound 21, 21]: the ΔTm at 10 µM is 0.33 °C.

As for `Cc1cc(=O)n(C)c2cc(N3C[C@@H](NC(=O)OC(C)(C)C)[C@H](C)CC3=O)ccc12` (relative stereo) [compound 22, 22], the ΔTm at 10 µM was 0.19 °C.

These data come from article PMC4871321 (Angewandte Chemie (Weinheim an Der Bergstrasse, Germany), 2015).
